# Reference: patent publication US8304420B2, “Substituted quinazolines for reducing platelet count” (Shire LLC, priority 2006, dated 2012)
# Read-outs that look alike come from different tables or passages of the source. Marks after values point to notes of the source that are not given here.
# What was measured:
# [1] = Solubilities of salts in three solvents (Example 2); details: for solubility at 3 min: 20 °C, thermodynamic from solid
# Protocol: (§1) The solubilities of various salts was investigated in three solvents [distilled water (pH 5.0), 50 mM ammonium formate (pH 7.9) and 0.1 M hydrochloric acid (pH0.6)]. An excess of the salt was suspended in the chosen medium and sonicated for 3 minutes. The mixture was centrifuged for 10 minutes, the supernatant liquid was collected and the solubility was measured.
# physchem = details: 20 °C, pH 5, water, thermodynamic from solid
# Protocol: as §1
# [2] = system: differentiation of human CD34+ stem cells into megakaryocytes; experiment: In vitro anti-megakaryocytic activity (model of megakaryocytopoiesis); assay type: cell-based
# Text: Such activity may be assessed using a well established model. Assessment of the in vitro anti-megakaryocytic activity—and potentially therefore the platelet lowering capability—of the anagrelide prodrugs can be determined using the model of megakaryocytopoiesis (Cohen-Solal et al., Thromb. Haemost. 1997, 78:37-41 and Cramer et al, Blood, 1997, 89:2336-46). This involves examining the differentiation of human CD34^+ stem cells into megakaryocytes which ultimately give rise to blood platelets.
# PDEIII = PDEIII inhibition; assay type: biochemical; details: more potent than anagrelide itself
# [3] = Plasma exposure to metabolite after treatment with anagrelide; assay type: in vivo
# [4] = Radiolabelling study in humans, oral 14C-labelled drug; assay type: in vivo
# Protocol: Anagrelide HCl itself is a poorly soluble drug substance. In the pH range of 4-8, the solubility is less than 10 μg/mL. […] Thus over much of the physiological pH range the drug has very poor aqueous solubility. Even material dissolving in the stomach at pH 1-2 may precipitate in the duodenum at pH 5-6. This presents potential problems for the quantitative absorption from the most likely site for absorption, namely the upper small intestine. As a consequence anagrelide is micronised prior to filling into capsules for clinical use to ensure maximal absorption. […] However for those patients requiring larger doses either as the result of relative insensitivity to the drug, higher first-pass pre-systemic metabolism or greater body weight, the possibility exists for incomplete absorption. This would be expected to lead to increased variability in attained plasma drug concentrations and consequential variability in patient response.
# [5] = dog, in vivo
# Protocol: The potential benefit of improved water solubility on the absorption of these open-ring analogues was shown in a comparative bioavailability study in the dog. Using the unsubstituted ethyl-5,6-dichloro-3,4-dihydro-2-(1H)-iminoquinazoline-3-acetate HBr as a model compound, a comparison was made of the systemic availability of anagrelide when given as this compound or as anagrelide itself in equimolar doses (7.7 & 6.1 mg/kg respectively).
# The metabolite-to-drug exposure ratio after anagrelide was 1.5 compared to 0.9 after the prodrug.
# The lesser variability was consistent with more efficient absorption. This study illustrated the potential benefits of the open-ring prodrugs to improve absorption.
# [6] = Aqueous solubility / solubility-pH profile
# [7] = Conversion of prodrug to anagrelide in human plasma (LC/MS-MS); assay type: in vitro ADME; details: spiked 100 ng/mL, room temperature, first point of measurement immediately after mixing
# Protocol: Such prodrugs are likely to be extremely rapidly and completely cyclised in plasma to the closed ring 3-alkylanagrelide analogues. […] Human plasma was spiked with anagrelide prodrug (final concentration 100 ng/mL). Immediately after mixing, and at 15, 30, 45 and 60 minutes afterward samples were analysed for anagrelide prodrug and anagrelide.
# [8] = 50 mM ammonium formate, pH 7.9, aqueous buffer
# [9] = 0.1 M hydrochloric acid, pH 0.6, simulated gastric fluid
# [10] = estimated from the solubility/pH profile
smiles,measurement,setting,value
Br.CC1(C)C(=O)NC2=Nc3ccc(Cl)cc3CN21,solubility at 3 min,[1]; [8],4 µg/mL
same,solubility at 3 min,[1]; [9],215 µg/mL
same,solubility at 3 min,"[1]; distilled water, pH 5, water",20 µg/mL
CC(C)(C(=O)[O-])N1Cc2c(ccc(Cl)c2Cl)N=C1N.[Na+],solubility at 3 min,[1]; [8],16 µg/mL
same,solubility at 3 min,[1]; [9],46 µg/mL
same,solubility at 3 min,"[1]; distilled water, pH 5, water",7340 µg/mL
Br.O=C1NC2=Nc3ccc(Cl)c(Cl)c3CN2C12CC2,solubility at 3 min,[1]; [8],1 µg/mL
same,solubility at 3 min,[1]; [9],35 µg/mL
same,solubility at 3 min,"[1]; distilled water, pH 5, water",2 µg/mL
Br.COC(=O)C1(N2Cc3c(ccc(Cl)c3Cl)N=C2N)CC1,solubility at 3 min,[1]; [9],6430 µg/mL
same,"Solubility, Ammonium formate (50 mM, pH 7.9)","[1]; ca. 20° C., 50 mM ammonium formate, pH 7.9",unstable
same,solubility at 3 min,"[1]; distilled water, pH 5, water",7060 µg/mL
Cl.O=C1CN2Cc3c(ccc(Cl)c3Cl)N=C2N1,solubility at 3 min,physchem,10 µg/mL
same,solubility at 3 min,[1]; [8],11 µg/mL
same,solubility at 3 min,[1]; [9],169 µg/mL
"CC1(C)C(=O)NC2=Nc3ccc(Cl)c(Cl)c3CN21 [3, 3, dimethyl anagrelide]",IC50,[2],~160 nM
O=C1NC2=Nc3ccc(Cl)c(Cl)c3CN2C1O (stereo not drawn) [3-hydroxyanagrelide],potency as inhibitor of PDEIII relative to anagrelide,PDEIII,~40 fold
same,plasma exposure to metabolite relative to the drug itself,[3],three times greater
"Cl.O.O=C1CN2Cc3c(ccc(Cl)c3Cl)N=C2N1 [anagrelide, 6,7-Dichloro-1,5-dihydroimidazo[2,1-b]-quinazolin-2(3H)-one hydrochloride monohydrate]",IC50,[2]; hydrochloride monohydrate,~27 nM
same,absorption,[4]; implied from urinary recovery after oral 1 mg,> 75%
same,administered radioactivity recovered in the urine,[4]; oral 1 mg 14C-labelled drug,> 75%
same,"AUC for anagrelide, range across dogs",[5]; po,21.6-188 ng.hmL^−1
same,"Cmax for anagrelide, range across dogs",[5]; po,9.5-44.3 ngmL^−1
same,inherent absorption,"[5]; male, 6.1 mg/kg",< 6.25%
same,metabolite-to-drug exposure ratio,"[5]; male, po",1.5
same,"AUC0-t of 3-hydroxy anagrelide, mean","[5]; male, po, 6.1 mg/kg",128 ng·h/mL
same,"AUCinfin of 3-hydroxy anagrelide, mean","[5]; male, po, 6.1 mg/kg",79.9 ng·h/mL
same,"Cmax of 3-hydroxy anagrelide, mean","[5]; male, po, 6.1 mg/kg",24.9 ng/mL
same,"Tmax of 3-hydroxy anagrelide, median","[5]; male, po, 6.1 mg/kg",1.5^b hours
same,"t½ of 3-hydroxy anagrelide, calculated as ln2/(mean rate constant)","[5]; male, po, 6.1 mg/kg",2.6^e hours
same,dissociation constant pKa1,[6]; [10],2.9
same,dissociation constant pKa2,[6]; [10],9.8
"Br.CCOC(=O)CN1Cc2c(ccc(Cl)c2Cl)NC1=N [ethyl-5,6-dichloro-3,4-dihydro-2-(1H)-iminoquinazoline-3-acetate HBr]",prodrug found in human plasma (conversion to anagrelide),[7],no prodrug could be found
same,"AUC for anagrelide, range across dogs",[5]; po,367-1470 ng.hmL^−1
same,"Cmax for anagrelide, range across dogs",[5]; po,170-418 ngmL^−1
same,metabolite-to-drug exposure ratio,[5]; po,0.9
same,fold higher Cmax for anagrelide than when the drug itself was administered,"[5]; po, 6.1 mg/kg",approximately 17 fold
same,mean fold higher AUC for anagrelide than when the drug itself was administered,"[5]; po, 6.1 mg/kg",16 fold
same,solubility,[6]; distilled water,~5500 µg/mL
